Results as given in ChEMBL document CHEMBL4507263, “Data for DCP probe BAY-474” (2021).

What was measured:
D(1B) dopamine receptor = D(1B) dopamine receptor (Homo sapiens, UniProt P21918); conditions: Compound concentration 10.0 uM
hERG (KCNH2) = hERG (KCNH2) (Homo sapiens, UniProt Q12809); experiment: Inhibition of Potassium Channel hERG at 10 µM in the Eurofins-Panlabs radioligand binding assay (Eurofins_assay_265900); set-up: ligand concentration 1.5 nM, non-specific ligand with concentration Astemizole, incubation time 60 min, incubation temperature 25 °C; conditions: HEK-293 cells expressing human recombinant hERG, probe [3H] Astemizole, compound concentration 10 uM
[1] = molecular target: Beta-1 adrenergic receptor (Homo sapiens) (UniProt P08588); conditions: Compound concentration 10.0 uM
Beta-1 adrenergic receptor (Homo sapiens), sequence (P08588 whole entry, looked up): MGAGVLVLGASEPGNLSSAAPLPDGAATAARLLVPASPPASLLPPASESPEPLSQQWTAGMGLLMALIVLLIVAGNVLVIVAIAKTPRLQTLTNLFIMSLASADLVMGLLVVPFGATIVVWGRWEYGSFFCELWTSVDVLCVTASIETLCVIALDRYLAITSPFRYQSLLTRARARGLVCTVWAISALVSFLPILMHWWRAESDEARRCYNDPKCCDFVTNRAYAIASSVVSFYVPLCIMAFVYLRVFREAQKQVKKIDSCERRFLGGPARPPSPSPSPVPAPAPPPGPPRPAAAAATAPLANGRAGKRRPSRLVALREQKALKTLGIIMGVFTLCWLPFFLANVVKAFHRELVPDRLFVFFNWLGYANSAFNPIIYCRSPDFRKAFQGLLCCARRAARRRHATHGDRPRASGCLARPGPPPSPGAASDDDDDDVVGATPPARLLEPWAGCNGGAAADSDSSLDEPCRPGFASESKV

[2] = molecular target: Muscarinic acetylcholine receptor M4 (Homo sapiens) (UniProt P08173); conditions: Compound concentration 10.0 uM
Muscarinic acetylcholine receptor M4 (Homo sapiens), sequence (P08173 whole entry): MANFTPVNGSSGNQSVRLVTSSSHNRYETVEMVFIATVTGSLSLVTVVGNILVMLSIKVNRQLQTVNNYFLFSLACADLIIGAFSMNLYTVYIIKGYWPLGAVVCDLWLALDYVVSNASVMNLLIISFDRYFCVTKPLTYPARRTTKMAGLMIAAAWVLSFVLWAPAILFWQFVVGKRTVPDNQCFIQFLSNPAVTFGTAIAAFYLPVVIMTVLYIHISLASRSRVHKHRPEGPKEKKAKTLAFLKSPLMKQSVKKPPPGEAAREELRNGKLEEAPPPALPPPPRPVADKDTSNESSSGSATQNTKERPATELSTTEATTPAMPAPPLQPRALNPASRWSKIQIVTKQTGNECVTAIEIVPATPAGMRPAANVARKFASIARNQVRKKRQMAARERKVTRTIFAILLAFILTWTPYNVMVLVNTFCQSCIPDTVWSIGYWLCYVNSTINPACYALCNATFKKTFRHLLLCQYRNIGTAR

[3] = molecular target: 5-hydroxytryptamine receptor 2A (Homo sapiens) (UniProt P28223); conditions: Compound concentration 10.0 uM
5-hydroxytryptamine receptor 2A (Homo sapiens), sequence (P28223 whole entry): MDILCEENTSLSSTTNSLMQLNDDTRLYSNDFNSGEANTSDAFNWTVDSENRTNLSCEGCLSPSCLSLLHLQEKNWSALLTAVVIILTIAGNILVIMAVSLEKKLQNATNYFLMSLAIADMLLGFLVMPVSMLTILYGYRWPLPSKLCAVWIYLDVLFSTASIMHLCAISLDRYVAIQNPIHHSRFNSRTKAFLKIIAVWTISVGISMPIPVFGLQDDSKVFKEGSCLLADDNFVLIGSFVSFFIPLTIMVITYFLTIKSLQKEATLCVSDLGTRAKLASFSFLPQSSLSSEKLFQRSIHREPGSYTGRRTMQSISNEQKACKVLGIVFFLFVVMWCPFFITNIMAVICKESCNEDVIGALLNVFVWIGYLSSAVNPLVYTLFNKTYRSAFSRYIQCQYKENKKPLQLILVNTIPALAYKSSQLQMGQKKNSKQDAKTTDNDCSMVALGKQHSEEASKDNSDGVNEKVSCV

[4] = molecular target: Ephrin type-A receptor 2 (Homo sapiens) (UniProt P29317); experiment: EphA2 (h) Millipore kinase activity assay; conditions: Compound concentration 1.0 uM
[5] = molecular target: T1, D(4) dopamine receptor (Homo sapiens) (UniProt P21917); experiment: Inhibition of Dopamine D4.2 at 10 µM in the Eurofins-Panlabs radioligand binding assay (Eurofins_assay_219900); set-up: ligand concentration 0.5 nM; conditions: Compound concentration 10.0 uM
T1 sequence (whole entry): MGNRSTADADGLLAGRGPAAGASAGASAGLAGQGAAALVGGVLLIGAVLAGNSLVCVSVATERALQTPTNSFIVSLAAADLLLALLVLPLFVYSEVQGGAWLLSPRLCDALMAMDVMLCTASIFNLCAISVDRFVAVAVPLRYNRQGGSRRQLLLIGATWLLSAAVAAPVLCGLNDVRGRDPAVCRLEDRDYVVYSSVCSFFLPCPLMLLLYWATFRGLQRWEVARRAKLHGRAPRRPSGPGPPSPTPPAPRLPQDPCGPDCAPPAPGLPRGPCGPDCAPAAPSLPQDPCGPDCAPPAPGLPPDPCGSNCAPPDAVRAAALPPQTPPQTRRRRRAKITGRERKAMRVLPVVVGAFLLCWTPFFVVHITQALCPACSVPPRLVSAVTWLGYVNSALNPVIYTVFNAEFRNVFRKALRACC

[6] = molecular target: Protein kinase C alpha type (Homo sapiens) (UniProt P17252); experiment: PKCalpha (h) Millipore kinase activity assay; conditions: Compound concentration 1.0 uM
[7] = molecular target: T1, D(4) dopamine receptor (Homo sapiens); conditions: Compound concentration 10.0 uM
[8] = molecular target: Beta-2 adrenergic receptor (Homo sapiens) (UniProt P07550); conditions: Compound concentration 10.0 uM
[9] = molecular target: GABA-A receptor; anion channel (Rattus norvegicus) (UniProt O09028+P15431+P18506+P18508+P19969+P20236+P23574+P23576+P28471+P28473+P30191+P62813+P63079+P63138+Q91ZM7+Q9ES14); experiment: Inhibition of GABAA, Muscimol, Central at 10 µM in the Eurofins-Panlabs radioligand binding assay (Eurofins_assay_226500); format: protein-complex assay; conditions: Compound concentration 10.0 uM
[10] = molecular target: T2, Alpha-1D adrenergic receptor (Homo sapiens) (UniProt P25100); conditions: Compound concentration 10.0 uM
T2 sequence (whole entry): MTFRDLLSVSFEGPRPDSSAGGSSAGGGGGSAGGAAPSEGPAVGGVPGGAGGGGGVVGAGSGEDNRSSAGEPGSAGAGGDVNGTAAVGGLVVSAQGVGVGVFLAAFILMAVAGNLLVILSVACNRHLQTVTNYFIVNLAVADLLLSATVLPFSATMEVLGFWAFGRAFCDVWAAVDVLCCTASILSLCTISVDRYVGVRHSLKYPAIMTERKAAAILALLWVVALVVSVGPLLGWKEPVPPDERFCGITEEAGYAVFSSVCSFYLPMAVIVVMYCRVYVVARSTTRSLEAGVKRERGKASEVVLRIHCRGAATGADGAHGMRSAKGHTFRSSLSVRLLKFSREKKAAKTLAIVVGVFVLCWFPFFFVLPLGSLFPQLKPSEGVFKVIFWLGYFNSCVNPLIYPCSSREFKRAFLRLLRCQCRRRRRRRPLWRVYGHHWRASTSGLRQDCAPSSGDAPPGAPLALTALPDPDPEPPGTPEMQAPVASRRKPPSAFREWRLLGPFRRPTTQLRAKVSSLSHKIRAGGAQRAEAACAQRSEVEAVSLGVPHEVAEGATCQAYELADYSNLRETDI

[11] = molecular target: Muscarinic acetylcholine receptor M3 (Homo sapiens) (UniProt P20309); conditions: Compound concentration 10.0 uM
[12] = molecular target: Gamma-aminobutyric acid type B receptor subunit 1 (Homo sapiens) (UniProt Q9UBS5); experiment: Inhibition of GABAB1A at compound concentration of 10.0 uM in the Eurofins-Panlabs radioligand binding assay (Eurofins_assay_228610); set-up: ligand concentration 4 nM; conditions: Compound concentration 10.0 uM
Gamma-aminobutyric acid type B receptor subunit 1 (Homo sapiens), sequence (Q9UBS5 whole entry): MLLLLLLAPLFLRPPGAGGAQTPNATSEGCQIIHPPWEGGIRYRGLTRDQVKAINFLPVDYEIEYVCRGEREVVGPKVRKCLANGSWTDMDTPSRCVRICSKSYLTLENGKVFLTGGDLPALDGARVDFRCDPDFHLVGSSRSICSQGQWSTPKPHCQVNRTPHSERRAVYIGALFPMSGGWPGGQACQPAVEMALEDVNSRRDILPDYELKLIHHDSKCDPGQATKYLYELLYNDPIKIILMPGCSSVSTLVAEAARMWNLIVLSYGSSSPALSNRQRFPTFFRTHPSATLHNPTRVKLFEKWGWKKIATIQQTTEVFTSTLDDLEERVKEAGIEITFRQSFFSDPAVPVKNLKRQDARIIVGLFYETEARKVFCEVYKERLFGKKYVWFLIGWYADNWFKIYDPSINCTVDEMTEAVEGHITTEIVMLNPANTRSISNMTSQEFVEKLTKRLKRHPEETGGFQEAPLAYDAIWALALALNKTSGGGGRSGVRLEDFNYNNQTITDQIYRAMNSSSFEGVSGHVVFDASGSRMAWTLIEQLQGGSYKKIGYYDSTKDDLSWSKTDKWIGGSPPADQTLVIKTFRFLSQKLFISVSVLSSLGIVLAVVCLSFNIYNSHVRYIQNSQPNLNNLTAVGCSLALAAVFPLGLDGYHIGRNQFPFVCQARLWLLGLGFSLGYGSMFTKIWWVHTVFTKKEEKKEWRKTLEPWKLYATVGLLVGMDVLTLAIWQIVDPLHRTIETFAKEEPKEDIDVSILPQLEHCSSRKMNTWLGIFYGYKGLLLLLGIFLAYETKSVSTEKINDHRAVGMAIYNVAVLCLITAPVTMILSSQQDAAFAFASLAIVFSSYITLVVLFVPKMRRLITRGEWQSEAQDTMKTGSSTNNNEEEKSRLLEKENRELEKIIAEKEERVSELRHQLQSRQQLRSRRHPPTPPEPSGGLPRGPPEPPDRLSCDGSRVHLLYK

[13] = molecular target: Serine/threonine-protein kinase PAK 4 (Homo sapiens) (UniProt O96013); conditions: Compound concentration 1000.0 nM
[14] = molecular target: 5-hydroxytryptamine receptor 5A (Homo sapiens) (UniProt P47898); conditions: Compound concentration 10.0 uM
[15] = molecular target: Rho-associated protein kinase 1 (Homo sapiens) (UniProt Q13464); conditions: Compound concentration 1000.0 nM
[16] = molecular target: Ribosomal protein S6 kinase alpha-3 (Homo sapiens, UniProt P51812); conditions: Compound concentration 1000.0 nM
[17] = test system: Receptor-type tyrosine-protein kinase FLT3 (Homo sapiens), P36888 [UNDEFINED MUTATION]; conditions: Compound concentration 1000.0 nM
Receptor-type tyrosine-protein kinase FLT3 (Homo sapiens), P36888 [UNDEFINED MUTATION], sequence (P36888 whole entry, looked up, change not shown): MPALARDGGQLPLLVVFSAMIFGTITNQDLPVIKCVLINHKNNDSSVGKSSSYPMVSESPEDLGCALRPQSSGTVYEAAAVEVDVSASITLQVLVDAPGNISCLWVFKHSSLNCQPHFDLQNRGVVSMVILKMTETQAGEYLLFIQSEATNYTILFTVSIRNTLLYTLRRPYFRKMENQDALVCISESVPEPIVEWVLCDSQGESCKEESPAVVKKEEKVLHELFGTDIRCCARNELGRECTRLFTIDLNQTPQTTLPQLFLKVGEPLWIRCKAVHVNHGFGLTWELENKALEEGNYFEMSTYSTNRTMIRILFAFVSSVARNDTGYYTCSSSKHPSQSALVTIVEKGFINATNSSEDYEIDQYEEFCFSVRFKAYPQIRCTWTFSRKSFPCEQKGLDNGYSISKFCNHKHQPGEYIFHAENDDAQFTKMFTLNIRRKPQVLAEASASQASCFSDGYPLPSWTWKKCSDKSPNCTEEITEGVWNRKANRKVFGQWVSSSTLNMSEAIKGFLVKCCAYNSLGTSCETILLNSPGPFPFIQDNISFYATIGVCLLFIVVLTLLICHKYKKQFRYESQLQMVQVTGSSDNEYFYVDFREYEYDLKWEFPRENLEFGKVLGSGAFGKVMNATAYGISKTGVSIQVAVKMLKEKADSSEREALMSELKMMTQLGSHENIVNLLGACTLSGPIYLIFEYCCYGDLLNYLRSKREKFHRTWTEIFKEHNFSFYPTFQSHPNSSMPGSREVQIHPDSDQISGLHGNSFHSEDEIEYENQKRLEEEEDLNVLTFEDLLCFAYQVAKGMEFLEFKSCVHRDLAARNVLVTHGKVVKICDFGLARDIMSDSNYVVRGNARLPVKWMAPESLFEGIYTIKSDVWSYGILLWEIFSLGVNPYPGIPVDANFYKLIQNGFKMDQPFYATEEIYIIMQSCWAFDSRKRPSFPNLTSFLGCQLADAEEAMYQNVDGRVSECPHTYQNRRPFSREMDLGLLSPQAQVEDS

[18] = molecular target: Cytoplasmic tyrosine-protein kinase BMX (Homo sapiens) (UniProt P51813); conditions: Compound concentration 1000.0 nM
[19] = molecular target: Calcium/calmodulin-dependent protein kinase type 1G (Homo sapiens) (UniProt Q96NX5); conditions: Compound concentration 1000.0 nM
[20] = molecular target: Myosin light chain kinase, smooth muscle (Homo sapiens) (UniProt Q15746); conditions: Compound concentration 1000.0 nM
[21] = molecular target: Mitogen-activated protein kinase kinase kinase 5 (Homo sapiens) (UniProt Q99683); conditions: Compound concentration 1000.0 nM
[22] = molecular target: Serine/threonine-protein kinase Nek2 (Homo sapiens) (UniProt P51955); conditions: Compound concentration 1000.0 nM
[23] = molecular target: Serine/threonine-protein kinase BRSK2 (Homo sapiens) (UniProt Q8IWQ3); conditions: Compound concentration 1000.0 nM
[24] = molecular target: Interleukin-1 receptor-associated kinase 3 (Homo sapiens) (UniProt Q9Y616); conditions: Compound concentration 1000.0 nM
Interleukin-1 receptor-associated kinase 3 (Homo sapiens), sequence (Q9Y616 whole entry): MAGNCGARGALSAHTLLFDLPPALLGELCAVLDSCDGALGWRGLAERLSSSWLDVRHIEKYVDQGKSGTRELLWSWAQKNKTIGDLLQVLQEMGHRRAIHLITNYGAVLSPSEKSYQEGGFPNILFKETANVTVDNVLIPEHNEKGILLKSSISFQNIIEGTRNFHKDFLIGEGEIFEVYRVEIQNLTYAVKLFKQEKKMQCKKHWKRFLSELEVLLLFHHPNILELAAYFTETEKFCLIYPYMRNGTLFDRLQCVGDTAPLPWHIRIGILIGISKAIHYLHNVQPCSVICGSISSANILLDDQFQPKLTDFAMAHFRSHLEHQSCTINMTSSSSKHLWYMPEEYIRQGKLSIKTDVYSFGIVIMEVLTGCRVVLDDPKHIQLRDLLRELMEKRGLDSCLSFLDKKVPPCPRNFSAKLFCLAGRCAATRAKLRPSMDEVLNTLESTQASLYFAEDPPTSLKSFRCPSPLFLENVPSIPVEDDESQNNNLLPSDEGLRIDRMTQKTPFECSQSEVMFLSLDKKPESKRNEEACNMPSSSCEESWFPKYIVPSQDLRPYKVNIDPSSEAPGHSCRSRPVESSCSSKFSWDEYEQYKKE

[25] = molecular target: Vascular endothelial growth factor receptor 2 (Homo sapiens) (UniProt P35968); conditions: Compound concentration 1000.0 nM
[26] = molecular target: Activin receptor type-2B (Homo sapiens) (UniProt Q13705); conditions: Compound concentration 1000.0 nM
Activin receptor type-2B (Homo sapiens), sequence (Q13705 whole entry): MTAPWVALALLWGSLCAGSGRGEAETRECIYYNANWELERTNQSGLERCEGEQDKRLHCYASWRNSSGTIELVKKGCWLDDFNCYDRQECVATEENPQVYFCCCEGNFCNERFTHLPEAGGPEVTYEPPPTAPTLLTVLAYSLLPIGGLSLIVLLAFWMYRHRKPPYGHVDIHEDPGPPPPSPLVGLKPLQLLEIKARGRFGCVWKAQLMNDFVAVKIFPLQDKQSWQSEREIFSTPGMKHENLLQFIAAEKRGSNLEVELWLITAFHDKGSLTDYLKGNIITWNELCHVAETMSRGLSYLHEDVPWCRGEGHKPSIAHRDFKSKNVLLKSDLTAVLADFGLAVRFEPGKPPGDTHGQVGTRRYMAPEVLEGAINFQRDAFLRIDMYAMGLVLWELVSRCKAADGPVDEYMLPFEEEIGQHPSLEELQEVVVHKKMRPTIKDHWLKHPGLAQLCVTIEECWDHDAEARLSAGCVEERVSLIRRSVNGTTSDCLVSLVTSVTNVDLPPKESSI

D(1B) dopamine receptor, sequence (P21918 whole entry): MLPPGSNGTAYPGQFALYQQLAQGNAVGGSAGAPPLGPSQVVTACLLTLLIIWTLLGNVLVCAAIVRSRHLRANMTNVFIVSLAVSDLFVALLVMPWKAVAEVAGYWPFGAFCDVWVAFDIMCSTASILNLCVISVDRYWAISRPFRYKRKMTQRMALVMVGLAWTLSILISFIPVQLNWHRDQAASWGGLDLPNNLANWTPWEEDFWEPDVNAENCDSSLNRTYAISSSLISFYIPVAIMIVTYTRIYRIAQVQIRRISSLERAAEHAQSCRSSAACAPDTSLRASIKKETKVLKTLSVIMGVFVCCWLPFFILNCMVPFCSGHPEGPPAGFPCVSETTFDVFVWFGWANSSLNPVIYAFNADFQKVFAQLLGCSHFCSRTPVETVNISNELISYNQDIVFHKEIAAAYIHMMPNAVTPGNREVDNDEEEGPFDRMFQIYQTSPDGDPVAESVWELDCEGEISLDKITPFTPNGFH

CC1=C(C#N)C(c2ccc3[nH]nc(C)c3c2)C(C#N)=C(C)N1 [BAY-474]
inhibition (D(1B) dopamine receptor): 5.4%
inhibition at 60 min, 10 µM (hERG (KCNH2)): 7% (not active)
inhibition [1]: 2.16%
inhibition [2]: 5.33%
inhibition [3]: 8.75%
inhibition [4]: 13%
inhibition [5]: -2%
inhibition [6]: 18%
inhibition [7]: 24%
inhibition [8]: 4%
inhibition [9]: 10%
inhibition [10]: 2.5%
inhibition [11]: 2%
inhibition [12]: 0%

CC1=C(C#N)[C@@H](c2ccc3[nH]nc(C)c3c2)C(C#N)=C(c2ccc(Cl)cc2)N1 [BAY-827]
residual activity [13]: 100%
inhibition (D(1B) dopamine receptor): 58.1%
inhibition [1]: 4.66%
inhibition [2]: 13%
inhibition [14]: 4.53%
inhibition [3]: 5.76%
residual activity [15]: 68.5%
inhibition [7]: 5.34%
residual activity [16]: 78.1%
inhibition [10]: 7.74%
residual activity [17]: 93.9%
residual activity [18]: 100%
residual activity [19]: 100%
residual activity [20]: 100%
residual activity [21]: 100%
residual activity [22]: 100%
residual activity [23]: 100%
residual activity [24]: 96.4%
residual activity [25]: 96.3%
residual activity [26]: 100%
